This is an account of results in publication PMC10897015, “Investigation of anti-nociceptive, anti-inflammatory potential and ADMET studies of pure compounds isolated from Isodon rugosus Wall. ex Benth” (Frontiers in Pharmacology, 2024).

Each structure is given as a SMILES string. Several values for one entry are separate records, joined by “and”; a condition that tells them apart may be missing. Equal values may be shown once. Marks after values point to notes of the source that are not given here.

In one test the test system is mice. The test can be described thus: Carrageenan-induced paw edema. Format: in vivo. The settings on record: for % edema volume inhibition (mean): aspirin 10 mg/kg; for Paw edema percent inhibition, individual values / Paw edema, individual values: single animals. The procedure: The animals under study were divided into different groups. Prior to the experiment, the animals had only access to water. […] Additionally, the isolated compounds being tested were given 30 min before injecting 0.05 ml of 1% carrageenan into the sub-plantar region of the paw. To measure the volume changes in the paw, a digital plethysmometer was employed. Readings were taken before and after the carrageenan injection at hourly intervals over a total period of 5 h.
In general terms: In the carrageenan paw model, swelling and tenderness develop within hours.

In test [1] the test system is Swiss albino mice. The test can be described thus: Hot plate test, involvement of adrenergic receptors. Format: in vivo. To be noted: single animals. The procedure:
The analgesic effects of the isolated compounds were measured using the hot plate method at a monitored temperature of 55 ± 0.2°C. The Swiss albino mice were positioned on the heated surface of the hot plate, and the period from placement to the onset of licking their hind paws or starting jump movements was noted as the response latency (thermal reactions). The test compounds were injected intraperitoneally. […] The animal models were checked for thermal reactions at various time intervals after sample administration.
The outcomes of the positive control and tested compounds were compared in animals pretreated with yohimbine. […] Additionally, clonidine at a dose of 3 μg/kg was intravenously administered. The animals were then subjected to the hot plate method, as reported before.
(In general: Hot-plate and tail-flick tests time the reaction to a heat stimulus.)

For test [2], the system named is Swiss albino mice. The test can be described thus: Acetic acid-induced writhing test. Format: in vivo. To be noted: for % analgesic activity (writhing inhibition) / Mean writhes: dose 10 mg/kg, oral; for Mean writhes: writhes counted 5-30 min after acetic acid, 10 mg/kg. As to the method: An anti-nociceptive assessment was performed on Swiss albino mice of both sexes, sourced from the National Institute of Health, Islamabad, Pakistan. […] Mice of either sex were divided into different groups, with five mice in each group. The test samples were carefully administered orally, with doses of 250, 500, 1000, and 2000 mg/kg.
I. rugosus was evaluated for its analgesic potential through an acetic acid-induced writhing test. Oral administration of the test samples was carried out using specified doses. After 30 min of interval, 10 ml/kg of acetic acid (0.6%) was injected into the mice. Group I served as the control and received 0.5% Tween-80 (3 ml/kg), group II received diclofenac sodium (10 mg/kg), and groups III and IV received test compounds. The count of writhes was recorded between 5 and 30 min, following the i/p injection of acetic acid ([Franzotti et al., 2000]).
Background: An intraperitoneal irritant provokes the stretching counted in writhing tests.

For the next test, the target named is T1, 5-LOX (Glycine max, UniProt P08170).
T1 sequence (P08170 1-839): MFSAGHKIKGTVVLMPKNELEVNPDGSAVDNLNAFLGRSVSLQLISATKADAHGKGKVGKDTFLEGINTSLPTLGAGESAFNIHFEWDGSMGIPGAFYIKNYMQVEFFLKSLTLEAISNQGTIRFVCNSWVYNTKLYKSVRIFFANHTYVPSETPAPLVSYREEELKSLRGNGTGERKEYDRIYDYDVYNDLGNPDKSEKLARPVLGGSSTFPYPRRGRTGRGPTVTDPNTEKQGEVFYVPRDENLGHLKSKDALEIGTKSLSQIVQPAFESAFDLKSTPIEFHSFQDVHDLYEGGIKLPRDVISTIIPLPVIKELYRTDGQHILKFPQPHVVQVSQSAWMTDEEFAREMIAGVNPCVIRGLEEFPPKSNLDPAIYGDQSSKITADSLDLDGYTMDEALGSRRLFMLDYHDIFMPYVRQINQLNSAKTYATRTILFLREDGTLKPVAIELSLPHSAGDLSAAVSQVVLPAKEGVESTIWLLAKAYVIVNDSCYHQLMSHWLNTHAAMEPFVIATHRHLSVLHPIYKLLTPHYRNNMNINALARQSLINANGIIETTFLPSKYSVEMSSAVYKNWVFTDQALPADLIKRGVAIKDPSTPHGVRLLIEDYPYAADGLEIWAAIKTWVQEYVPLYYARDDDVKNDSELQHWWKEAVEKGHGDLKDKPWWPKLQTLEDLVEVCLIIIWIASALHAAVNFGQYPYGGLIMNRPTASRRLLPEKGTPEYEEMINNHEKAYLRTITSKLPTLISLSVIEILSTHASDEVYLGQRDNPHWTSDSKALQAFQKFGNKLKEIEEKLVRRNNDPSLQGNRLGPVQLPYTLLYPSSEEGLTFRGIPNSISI
The test can be described thus: Lipoxygenase (5-LOX) inhibitory activity. Format: biochemical. The procedure: The enzyme solution with a concentration of 10,000 U/ml was prepared. […] A solution (80 mM) of linoleic acid (substrate) was made. Likewise, a 50 mM phosphate buffer solution with a pH of 6.3 was prepared. The substrate, enzyme, and buffer were combined in equal proportions, each in a 2 ml volume. […] The inhibition percentage was determined by comparing the absorbance of the test samples with that of the positive control.

With `CC(=O)Oc1ccccc1C(=O)O` [Aspirin, aspirin, reference compound], the “% edema volume inhibition (mean)” value in the test on mice (1st hour after carrageenan) is 51.772%; in the test with mice (1st hour after carrageenan, listed as aspirin), 51.77 ± 0.10%; in the test on mice (2nd hour after carrageenan) it was 56.106%; with mice (3rd hour after carrageenan) it was 57.334%; in the test on mice (4th hour after carrageenan) it was 60.956%; in the test with mice (5th hour after carrageenan), 57.694%. Also, the “% edema volume inhibition (mean)” value with mice (5th hour after carrageenan, listed as aspirin) amounted to 57.77 ± 0.40%. In addition, the “Paw edema percent inhibition, individual values” in the test on mice (hour 1) is 52.34% and 51.04% and 52.35% and 51.83% and 51.3%; with mice (hour 2), 59.13% and 52.65% and 58.06% and 56.7% and 53.99%; in the test on mice (hour 3) it was 59.52% and 56.85% and 58.59% and 57.12% and 54.59%; with mice (hour 4) it was 63.3% and 60.42% and 61.07% and 60.88% and 59.11%; in the test on mice (hour 5), 59.25% and 55.95% and 53.49% and 59.23% and 60.55%. Besides, the “Paw edema, individual values” is 0.362 and 0.375 and 0.365 and 0.369 and 0.373 in the test with mice (hour 1); 0.302 and 0.349 and 0.31 and 0.32 and 0.34 in the test with mice (hour 2); 0.304 and 0.322 and 0.311 and 0.341 in the test with mice (hour 3); 0.275 and 0.301 and 0.297 and 0.312 with mice (hour 4); 0.298 and 0.322 and 0.34 and 0.289 with mice (hour 5).
On to `Clc1cccc(Cl)c1N=C1NCCN1` [Clonidine, reference compound], for which the “Hot plate analysis (adrenergic), individual values” in the test on Swiss albino mice [1] (30 Minutes) is 9.56 and 8.88 and 10.88; with Swiss albino mice [1] (45 Minutes), 10.6 and 9.32 and 10.99; in the test on Swiss albino mice [1] (15 minutes), 9.26 and 10.12 and 10.98; in the test on Swiss albino mice [1] (60 minutes) it was 8.2 and 10.01 and 7.59; in the test on Swiss albino mice [1] (90 minutes) it was 8.4 and 10.26 and 9.3.
Take `O=C(O)Cc1ccccc1Nc1c(Cl)cccc1Cl` [Positive control, diclofenac sodium, reference compound]: the “Writhes, individual values” in the test with Swiss albino mice [2] (10mg, single animals) was 16.1 and 17.8 and 15.6. The “% analgesic activity (writhing inhibition)” value in the test with Swiss albino mice [2] was 73.02^*** %; in the test with Swiss albino mice [2] (listed as positive control) it was 73.02%. In addition, the Mean writhes in the test on Swiss albino mice [2] is 16.5 ± 0.76; in the test with Swiss albino mice [2] (listed as Positive Control), 16.5.
For `CC(c1cc2ccccc2s1)N(O)C(N)=O` (stereo not shown) [Zileuton, reference compound], the inhibition at 62.5 µg/mL on 5-LOX (read-out: % inhibition 5-LOX (mean ± SEM), 62.5 µg/ml) amounted to 79.8 ± 0.37%. In addition, the inhibition at 250 µg/mL on 5-LOX (read-out: % inhibition 5-LOX (mean ± SEM), 250 µg/ml) came out at 88.98 ± 0.85%. Further, the inhibition at 500 µg/mL on 5-LOX (read-out: % inhibition 5-LOX (mean ± SEM), 500 µg/ml) turned out to be 92.22 ± 0.11%. Also, the inhibition at 1000 µg/mL on 5-LOX (read-out: % inhibition 5-LOX (mean ± SEM), 1000 µg/ml) stood at 95.2 ± 0.15%.
